Measurements from patent US20210228467A1, “High-Potency Vitamin C Topical Formulations” (Baek Clinical Inc., priority 2018, published 2021).
Read-outs that look alike come from different tables or passages of the source. Values belong to the compound of their own block, whether it stands above or below them.

What was measured:
[1] = use of 4% HQ versus 5% Vitamin C; cited from earlier work
[2] = Solubility of optional additional components in polyol solvents; type: physicochemical
Description: Additional ingredients were chosen for their compatibility with (e.g., miscibility in) 1,3 propanediol, 1,2 propanediol, and 1,3 butanediol.

[3] = cited from earlier work
[4] = 20% urea solution, cited from earlier work
[5] = Comparative studies: solubilization with heating and crystallization on room temperature storage; type: physicochemical; settings: ascorbic acid together with urea in propylene glycol, butylene glycol and propanediol
Procedure: This example was reproduced.
All mixtures were heated to 85° C.

[6] = Solubilization / recrystallization of AA with urea in 1,3 propanediol; type: physicochemical
Description: Next, concentrations of ascorbic acid beyond the aforementioned maximum concentration are solubilized, using urea as a co-solvent.

Compound: O=C1O[C@H]([C@@H](O)CO)C(O)=C1O [AA, L-ascorbic acid]
improvement [1]: 62.5%

solubility ([2]; in 1,3 propanediol, 1,2 propanediol and 1,3 butanediol at 0.5-1%): readily soluble
Compound: COc1cc(CC(C(C)=O)C(C)=O)ccc1O [Acetyl zingerone]

concentration solubilized ([2]; in 1,3 propanediol): up to 10% | concentration solubilized ([2]; with 10% AA, 5% U in a 1,3 propanediol base): 7.5%
Compound: O=C(O)CCCCCCCC(=O)O [AzA, Azelaic acid, reference compound]
pKa [3]: 4.15

Compound: Oc1ccc(O)cc1 [HQ, hydroquinone]
improvement [1]: 93% | side-effects [1]: 68.7%

maximum concentrations soluble before urea starts to precipitate (the ceiling) [5]: 20% | minimum amount U required to solubilize 20% AA [6]: ~10% | saturation of U reached before recrystallization of U [6]: ~27.8%
Compound: NC(N)=O [U, urea]
pH ([4]; after 11 months at room temperature): 8.8 | pH ([4]; start): 7.4

solubility ([2]; in 1,3-propanediol): shows solubility
Compound: CC1(C)[C@@H](O[C@H]2O[C@H](C(=O)O)[C@@H](O)[C@H](O)[C@H]2O[C@@H]2O[C@H](C(=O)O)[C@@H](O)[C@H](O)[C@H]2O)CC[C@]2(C)[C@H]3C(=O)C=C4[C@@H]5C[C@@](C)(C(=O)O)CC[C@]5(C)CC[C@@]4(C)[C@]3(C)CC[C@@H]12 [glycyrrhizic acid, Glycyrrhizic acid]

solubility ([2]; at a concentration of 0.2% in 1,3 propanediol, 1,2 propanediol and 1,3 butanediol): soluble
Compound: Madecassoside
